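96-well plates; 48 h exposure; 5 concentrations. Endpoints by linear interpolation between flanking doses. Not reached: highest tested concentration assigned. TGI: total growth inhibition.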
How the values were obtained:
Test in all cases: inhibition of tumour cell growth, NCI panel, 48 h
OVCAR-3 ovarian = tested on: OVCAR-3 ovarian
HOP-92 NSCLC = tested on: HOP-92 NSCLC
UACC-62 melanoma = tested on: UACC-62 melanoma
U251 CNS = tested on: U251 CNS
HL-60(TB) leukemia = tested on: HL-60(TB) leukemia
HOP-62 NSCLC = tested on: HOP-62 NSCLC
M14 melanoma = tested on: M14 melanoma
OVCAR-4 ovarian = tested on: OVCAR-4 ovarian
COLO 205 colon = tested on: COLO 205 colon
HCT-116 colon = tested on: HCT-116 colon
SK-OV-3 ovarian = tested on: SK-OV-3 ovarian
SF-295 CNS = tested on: SF-295 CNS
MALME-3M melanoma = tested on: MALME-3M melanoma
UO-31 renal = tested on: UO-31 renal
MDA-MB-231 breast = tested on: MDA-MB-231 breast
SNB-19 CNS = tested on: SNB-19 CNS
786-0 renal = tested on: 786-0 renal
SN12C renal = tested on: SN12C renal
RPMI-8226 leukemia = tested on: RPMI-8226 leukemia
NCI-H23 lung = tested on: NCI-H23 lung
SK-MEL-5 melanoma = tested on: SK-MEL-5 melanoma
TK-10 renal = tested on: TK-10 renal
SK-MEL-28 melanoma = tested on: SK-MEL-28 melanoma
EKVX NSCLC = tested on: EKVX NSCLC
IGROV1 ovarian = tested on: IGROV1 ovarian
NCI/ADR-RES ovarian = tested on: NCI/ADR-RES ovarian
OVCAR-8 ovarian = tested on: OVCAR-8 ovarian
HCC-2998 colon = tested on: HCC-2998 colon
NCI-H226 lung = tested on: NCI-H226 lung
UACC-257 melanoma = tested on: UACC-257 melanoma
DU-145 prostate = tested on: DU-145 prostate
MDA-N = tested on: MDA-N
A498 renal = tested on: A498 renal
SR leukemia = tested on: SR leukemia
MDA-MB-435 = tested on: MDA-MB-435
MCF7 breast = tested on: MCF7 breast
OVCAR-5 ovarian = tested on: OVCAR-5 ovarian
T-47D breast = tested on: T-47D breast
NCI-H460 lung = tested on: NCI-H460 lung
HCT-15 colon = tested on: HCT-15 colon
CCRF-CEM leukemia = tested on: CCRF-CEM leukemia
SW-620 colon = tested on: SW-620 colon
A549 NSCLC = tested on: A549 NSCLC
SNB-75 CNS = tested on: SNB-75 CNS
BT-549 breast = tested on: BT-549 breast
K-562 leukemia = tested on: K-562 leukemia
ACHN renal = tested on: ACHN renal
HT29 colon = tested on: HT29 colon
SF-268 CNS = tested on: SF-268 CNS
MOLT-4 leukemia = tested on: MOLT-4 leukemia
KM12 colon = tested on: KM12 colon
RXF 393 renal = tested on: RXF 393 renal
HS 578T breast = tested on: HS 578T breast
LOX IMVI melanoma = tested on: LOX IMVI melanoma
NCI-H522 lung = tested on: NCI-H522 lung
SF-539 CNS = tested on: SF-539 CNS
SK-MEL-2 melanoma = tested on: SK-MEL-2 melanoma
CAKI-1 renal = tested on: CAKI-1 renal
PC-3 prostate = tested on: PC-3 prostate

Measured: TGI

O=S(=O)(c1ccccc1)C1(CCC2OCCO2)C=CC2(CC1)OCCO2 (stereo unspecified)
not listed: KM12 colon | RXF 393 renal | HS 578T breast | LOX IMVI melanoma | NCI-H522 lung | SF-539 CNS | SK-MEL-2 melanoma | CAKI-1 renal | PC-3 prostate
> 100 µM: all other assays above

[O-][n+]1onc2c1/C(=N/O)CCC2
not listed: HOP-92 NSCLC | U251 CNS | BT-549 breast
> 100 µM: all other assays above

— PubChem BioAssay (NCI)
